ChEMBL document CHEMBL1201862, “PubChem BioAssay data set” (2004)
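Growth conditions: 96-well plates. Treatment: test compound, 48 hours, 5 concentrations. Analysis: linear interpolation between bracketing concentrations; unreached endpoints set to highest concentration. GI50 marks 50% less growth.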 Calls of active or inactive are those of the source. Cut-off read from the data, not from the text of the source: active = GI50 up to about 1.1 µM and inactive = higher.

Assays:
Test in all cases: NCI tumour cell line growth inhibition, 48 h
NCI-H226 = system: NCI-H226
NCI-H460 = system: NCI-H460
KM-20L2 = system: KM-20L2
SR = system: SR
OVCAR-3 = system: OVCAR-3
ACHN = system: ACHN
SNB-75 = system: SNB-75
UO-31 = system: UO-31
HOP-92 = system: HOP-92
DLD-1 = system: DLD-1
SF-539 = system: SF-539
RPMI-8226 = system: RPMI-8226
HOP-62 = system: HOP-62
HCT-116 = system: HCT-116
IGROV-1 = system: IGROV-1
KM12 = system: KM12
786-0 = system: 786-0
A549 = system: A549
RXF 631 = system: RXF 631
UACC-62 = system: UACC-62
SNB-19 = system: SNB-19
COLO 205 = system: COLO 205
SF-295 = system: SF-295
HT-29 = system: HT-29
UACC-257 = system: UACC-257
A498 = system: A498
SN12C = system: SN12C
MOLT-4 = system: MOLT-4
SNB-78 = system: SNB-78
DMS-114 = system: DMS-114
CAKI-1 = system: CAKI-1
SF-268 = system: SF-268
LXFL 529 = system: LXFL 529
HL-60 = system: HL-60
TK-10 = system: TK-10
NCI-H23 = system: NCI-H23
HCC 2998 = system: HCC 2998
SK-MEL-28 = system: SK-MEL-28
M19-MEL = system: M19-MEL
EKVX = system: EKVX
NCI-H522 = system: NCI-H522
LOX IMVI = system: LOX IMVI
DMS-273 = system: DMS-273
M14 = system: M14
K562 = system: K562
RXF 393 = system: RXF 393
OVCAR-8 = system: OVCAR-8
Malme-3M = system: Malme-3M
U-251 = system: U-251
HOP-18 = system: HOP-18
SW-620 = system: SW-620
SK-OV-3 = system: SK-OV-3
OVCAR-5 = system: OVCAR-5
SK-MEL-2 = system: SK-MEL-2
OVCAR-4 = system: OVCAR-4
HCT-15 = system: HCT-15
XF498 = system: XF498
SK-MEL-5 = system: SK-MEL-5
CCRF-CEM = system: CCRF-CEM

Structure (SMILES): CS/C(=C(\S)c1ccccc1)c1ccccc1
- GI50 (NCI-H226): > 100 µM (inactive)
- GI50 (NCI-H460): > 100 µM (inactive)
- GI50 (KM-20L2): > 31.6 µM (inactive)
- GI50 (SR): 50.6 µM (inactive)
- GI50 (OVCAR-3): > 100 µM (inactive)
- GI50 (ACHN): > 100 µM (inactive)
- GI50 (SNB-75): > 100 µM (inactive)
- GI50 (UO-31): > 100 µM (inactive)
- GI50 (HOP-92): > 100 µM (inactive)
- GI50 (DLD-1): > 100 µM (inactive)
- GI50 (SF-539): > 100 µM (inactive)
- GI50 (RPMI-8226): > 100 µM (inactive)
- GI50 (HOP-62): > 100 µM (inactive)
- GI50 (HCT-116): > 100 µM (inactive)
- GI50 (IGROV-1): > 100 µM (inactive)
- GI50 (KM12): > 100 µM (inactive)
- GI50 (786-0): > 100 µM (inactive)
- GI50 (A549): > 100 µM (inactive)
- GI50 (RXF 631): > 100 µM (inactive)
- GI50 (UACC-62): > 100 µM (inactive)
- GI50 (SNB-19): > 100 µM (inactive)
- GI50 (COLO 205): > 100 µM (inactive)
- GI50 (SF-295): > 100 µM (inactive)
- GI50 (HT-29): > 100 µM (inactive)
- GI50 (UACC-257): > 100 µM (inactive)
- GI50 (A498): > 100 µM (inactive)
- GI50 (SN12C): > 100 µM (inactive)
- GI50 (MOLT-4): > 10 µM (inactive)
- GI50 (SNB-78): > 100 µM (inactive)
- GI50 (DMS-114): > 100 µM (inactive)
- GI50 (CAKI-1): > 100 µM (inactive)
- GI50 (SF-268): > 100 µM (inactive)
- GI50 (LXFL 529): > 100 µM (inactive)
- GI50 (HL-60): > 100 µM (inactive)
- GI50 (TK-10): > 100 µM (inactive)
- GI50 (NCI-H23): > 100 µM (inactive)
- GI50 (HCC 2998): > 100 µM (inactive)
- GI50 (SK-MEL-28): > 100 µM (inactive)
- GI50 (M19-MEL): > 100 µM (inactive)
- GI50 (EKVX): > 100 µM (inactive)
- GI50 (NCI-H522): > 100 µM (inactive)
- GI50 (LOX IMVI): > 100 µM (inactive)
- GI50 (DMS-273): > 100 µM (inactive)
- GI50 (M14): > 100 µM (inactive)
- GI50 (K562): > 100 µM (inactive)
- GI50 (RXF 393): > 91.2 µM (inactive)
- GI50 (OVCAR-8): > 100 µM (inactive)
- GI50 (Malme-3M): > 100 µM (inactive)
- GI50 (U-251): > 100 µM (inactive)
- GI50 (HOP-18): > 100 µM (inactive)
- GI50 (SW-620): > 100 µM (inactive)
- GI50 (SK-OV-3): > 100 µM (inactive)
- GI50 (OVCAR-5): > 100 µM (inactive)
- GI50 (SK-MEL-2): > 100 µM (inactive)
- GI50 (OVCAR-4): > 87.1 µM (inactive)
- GI50 (HCT-15): > 100 µM
- GI50 (XF498): > 100 µM (inactive)
- GI50 (SK-MEL-5): > 100 µM (inactive)

Structure (SMILES): COC1(Cc2ccccc2)C(=O)c2ccccc2N1C(C)=O (stereo not given)
- GI50 (NCI-H460): > 100 µM (inactive)
- GI50 (KM-20L2): > 100 µM (inactive)
- GI50 (SR): > 100 µM (inactive)
- GI50 (OVCAR-3): > 100 µM (inactive)
- GI50 (ACHN): > 100 µM (inactive)
- GI50 (SNB-75): > 100 µM (inactive)
- GI50 (UO-31): > 100 µM (inactive)
- GI50 (HOP-92): > 100 µM (inactive)
- GI50 (DLD-1): > 100 µM (inactive)
- GI50 (SF-539): > 100 µM (inactive)
- GI50 (RPMI-8226): > 100 µM (inactive)
- GI50 (HOP-62): > 100 µM (inactive)
- GI50 (HCT-116): > 100 µM (inactive)
- GI50 (IGROV-1): > 100 µM (inactive)
- GI50 (KM12): > 100 µM (inactive)
- GI50 (786-0): > 100 µM (inactive)
- GI50 (A549): > 100 µM (inactive)
- GI50 (RXF 631): > 100 µM (inactive)
- GI50 (UACC-62): > 100 µM (inactive)
- GI50 (SNB-19): > 100 µM (inactive)
- GI50 (COLO 205): > 100 µM (inactive)
- GI50 (SF-295): > 100 µM (inactive)
- GI50 (HT-29): > 100 µM (inactive)
- GI50 (UACC-257): > 100 µM (inactive)
- GI50 (A498): > 100 µM (inactive)
- GI50 (SN12C): > 100 µM (inactive)
- GI50 (MOLT-4): > 100 µM (inactive)
- GI50 (SNB-78): > 100 µM (inactive)
- GI50 (CCRF-CEM): > 100 µM (inactive)
- GI50 (DMS-114): > 100 µM (inactive)
- GI50 (CAKI-1): > 100 µM (inactive)
- GI50 (LXFL 529): > 100 µM (inactive)
- GI50 (HL-60): > 100 µM (inactive)
- GI50 (NCI-H23): > 100 µM (inactive)
- GI50 (HCC 2998): > 100 µM (inactive)
- GI50 (SK-MEL-28): > 100 µM (inactive)
- GI50 (M19-MEL): > 100 µM (inactive)
- GI50 (EKVX): > 100 µM (inactive)
- GI50 (DMS-273): > 100 µM (inactive)
- GI50 (M14): > 100 µM (inactive)
- GI50 (K562): > 100 µM (inactive)
- GI50 (RXF 393): > 100 µM (inactive)
- GI50 (OVCAR-8): > 100 µM (inactive)
- GI50 (U-251): > 100 µM (inactive)
- GI50 (HOP-18): > 100 µM (inactive)
- GI50 (SW-620): > 100 µM (inactive)
- GI50 (SK-OV-3): > 100 µM (inactive)
- GI50 (SK-MEL-2): > 100 µM (inactive)
- GI50 (OVCAR-4): > 100 µM (inactive)
- GI50 (HCT-15): > 100 µM
- GI50 (XF498): > 100 µM (inactive)

Structure (SMILES): C/C(=N\NC(=S)Nc1ccc([N+](=O)[O-])cc1S(=O)(=O)O)c1ccccn1
- GI50 (NCI-H226): 37.4 µM (inactive)
- GI50 (NCI-H460): 25.7 µM (inactive)
- GI50 (KM-20L2): 26.3 µM (inactive)
- GI50 (SR): 32.6 µM (inactive)
- GI50 (OVCAR-3): 26.6 µM (inactive)
- GI50 (ACHN): 62.4 µM (inactive)
- GI50 (SNB-75): 43 µM (inactive)
- GI50 (UO-31): 45.6 µM (inactive)
- GI50 (HOP-92): 41.9 µM (inactive)
- GI50 (DLD-1): 41.2 µM (inactive)
- GI50 (SF-539): 46.3 µM (inactive)
- GI50 (RPMI-8226): 40 µM (inactive)
- GI50 (HOP-62): 76.9 µM (inactive)
- GI50 (HCT-116): 28.4 µM (inactive)
- GI50 (IGROV-1): 73.1 µM (inactive)
- GI50 (KM12): 51.8 µM (inactive)
- GI50 (786-0): 59.8 µM (inactive)
- GI50 (A549): 37.7 µM (inactive)
- GI50 (RXF 631): > 100 µM (inactive)
- GI50 (UACC-62): 73.8 µM (inactive)
- GI50 (COLO 205): 36.5 µM (inactive)
- GI50 (SF-295): > 100 µM (inactive)
- GI50 (HT-29): 34.6 µM (inactive)
- GI50 (UACC-257): > 100 µM (inactive)
- GI50 (A498): 36.7 µM (inactive)
- GI50 (SN12C): 59 µM (inactive)
- GI50 (MOLT-4): 40.1 µM (inactive)
- GI50 (SNB-78): > 100 µM (inactive)
- GI50 (CCRF-CEM): 39.9 µM (inactive)
- GI50 (DMS-114): 39.7 µM (inactive)
- GI50 (CAKI-1): 52.8 µM (inactive)
- GI50 (SF-268): 95.3 µM (inactive)
- GI50 (LXFL 529): 61 µM (inactive)
- GI50 (HL-60): 31.7 µM (inactive)
- GI50 (TK-10): 37.4 µM (inactive)
- GI50 (NCI-H23): 69.3 µM (inactive)
- GI50 (HCC 2998): 30.9 µM (inactive)
- GI50 (SK-MEL-28): > 100 µM (inactive)
- GI50 (M19-MEL): 43.8 µM (inactive)
- GI50 (EKVX): 37.9 µM (inactive)
- GI50 (LOX IMVI): 53.2 µM (inactive)
- GI50 (DMS-273): 37 µM (inactive)
- GI50 (M14): 64 µM (inactive)
- GI50 (K562): 41.1 µM (inactive)
- GI50 (RXF 393): 38.8 µM (inactive)
- GI50 (OVCAR-8): 34.3 µM (inactive)
- GI50 (Malme-3M): 95.9 µM (inactive)
- GI50 (U-251): 33.5 µM (inactive)
- GI50 (HOP-18): 40.1 µM (inactive)
- GI50 (SW-620): 26.5 µM (inactive)
- GI50 (OVCAR-5): 39.9 µM (inactive)
- GI50 (SK-MEL-2): 29.4 µM (inactive)
- GI50 (OVCAR-4): 36.8 µM (inactive)
- GI50 (HCT-15): 37.6 µM
- GI50 (XF498): 30 µM (inactive)
- GI50 (SK-MEL-5): 57.8 µM (inactive)
